Data on eight molecules can be found in PubChem BioAssay AID602164 (The Scripps Research Institute Molecular Screening Center, 2012).

This experiment deals with 2B4/Mcl-1 cells apoptosis, absorbance viability. Briefly: Mcl-1-selective cell killing, 2B4 lines – absorbance, 2B4/Mcl1 vs 2B4/Bcl-2, selectivity assay for MCL1-BIM inhibitor project, late-stage follow-up (AID 602164).
`CCN1CCN(C(c2cccs2)c2ccc3cccnc3c2O)CC1` (stereo not drawn): the IC50 is 3.8 µM. Then `Cc1ccnc(NC(c2cccs2)c2ccc3cccnc3c2O)c1` (stereo not drawn), with 2.4 µM; and `OCCN1CCN(C(c2cccs2)c2ccc3cccnc3c2O)CC1` (stereo not drawn), with 5.1 µM; and `Oc1c(C(c2cccs2)N2CCCCC2)ccc2cccnc12` (stereo not drawn), with 4.4 µM. Regarding `CC(C)Oc1ccc(C(Nc2ccccn2)c2ccc3cccnc3c2O)cc1` (stereo not drawn), the IC50 is 2.3 µM. As for `Oc1c(C(c2cccs2)N2CCN(c3ccccn3)CC2)ccc2cccnc12` (stereo not drawn), the figure is 3.7 µM; as for `Oc1c(C(Nc2ccccn2)c2cccs2)ccc2cccnc12` (stereo not drawn), 3.1 µM; as for `CN1CCN(C(c2ccc(F)cc2)c2ccc3cccnc3c2O)CC1` (stereo not drawn), 4 µM.
